Data on four molecules can be found in patent publication US6518290B1, “Substituted oxazoles and thiazoles derivatives as HPPAr alpha activators” (priority 1999, dated 2003).

pEC50: −log10 of the molar value. Some results are limits rather than exact numbers.

A word on the melting point: it is the temperature, or range, at which the solid turns liquid.

One data set has as its target T1, human PPAR gamma (Homo sapiens, UniProt P37231).
T1 construct: expressed in transfected cells; host or cells: CV-1 cells
T1 sequence (P37231 238-503 limits assumed): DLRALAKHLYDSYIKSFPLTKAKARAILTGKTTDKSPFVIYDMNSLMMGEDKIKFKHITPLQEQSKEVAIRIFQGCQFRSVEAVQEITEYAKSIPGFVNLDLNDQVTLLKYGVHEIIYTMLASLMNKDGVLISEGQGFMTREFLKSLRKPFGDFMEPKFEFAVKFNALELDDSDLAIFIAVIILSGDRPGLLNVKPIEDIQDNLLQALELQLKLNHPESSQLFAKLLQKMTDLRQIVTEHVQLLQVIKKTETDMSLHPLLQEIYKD
As to the kind of experiment: PPAR transient transfection (transactivation) assay in CV-1 cells, hPPAR gamma. It is filed as cell-based. To be noted: PPAR LBD-GAL4 chimera, SPAP reporter, 24 h with compound, read-out: human γEC50. From the text:
(§1) Compounds were screened for functional potency in transient transfection assays in CV-1 cells for their ability to activate the PPAR subtypes (transactivation assay). A previously established chimeric receptor system was utilized to allow comparison of the relative transcriptional activity of the receptor subtypes on the same target gene and to prevent endogenous receptor activation from complicating the interpretation of results. See, for example, Lehmann, J. M.; Moore, L. B.; Smith-Oliver, T. A.; Wilkison, W. O.; Willson, T. M.; Kliewer, S. A., An antidiabetic thiazolidinedione is a high affinity ligand for peroxisome proliferator-activated receptor γ (PPARγ), J. Biol. Chem., 1995, 270, 12953-6. The ligand binding domains for murine and human PPAR alpha, PPAR gamma, and PPAR delta were each fused to the yeast transcription factor GAL4 DNA binding domain. CV-1 cells were transiently transfected with expression vectors for the respective PPAR chimera along with a reporter construct containing five copies of the GAL4 DNA binding site driving expression of secreted placental alkaline phosphatase (SPAP) and β-galactosidase. After 16 h, the medium was exchanged to DME medium supplemented with 10% delipidated fetal calf serum and the test compound at the appropriate concentration. After an additional 24 h, cell extracts were prepared and assayed for alkaline phosphatase and β-galactosidase activity. Alkaline phosphatase activity was corrected for transfection efficiency using the β-galactosidase activity as an internal standard (see, for example, Kliewer, S. A., et. al. Cell 83, 813-819 (1995)). Rosiglitazone (BRL 49653) was used as a positive control in the hPPAR gamma assay. The positive control in the hPPAR alpha assays was 2-(2-methyl-3-[3-{3-(4-cyclohexylamino)-[6-(4-fluorophenylpiperazin-1-yl)][1,3,5]triazin-2-ylamino}propyl]phenylthio)-2-methylpropionic acid. The positive control for PPAR delta assays was 2-{2-methyl-4-[({4-methyl-2-{trifluoromethyl)phenyl]-1,3-thiazol-5-yl}methyl)sulfanyl]phenoxy}acetic acid.

A further data set concerns the target T2, human PPAR alpha (Homo sapiens, UniProt Q07869).
T2 construct: expressed in transfected cells; host or cells: CV-1 cells
T2 sequence (Q07869 239-466 limits assumed): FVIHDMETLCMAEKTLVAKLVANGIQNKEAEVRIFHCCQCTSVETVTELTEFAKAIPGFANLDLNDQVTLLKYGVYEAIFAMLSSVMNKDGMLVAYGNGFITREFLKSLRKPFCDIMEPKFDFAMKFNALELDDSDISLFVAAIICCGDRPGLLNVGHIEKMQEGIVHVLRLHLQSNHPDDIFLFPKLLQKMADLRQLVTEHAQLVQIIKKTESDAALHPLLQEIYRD
In words: PPAR transient transfection (transactivation) assay in CV-1 cells, hPPAR alpha. To be noted: PPAR LBD-GAL4 chimera, SPAP reporter, 24 h with compound, read-out: human αEC50. It counts as cell-based.
Source text: as §1, with “Alkaline phosphatase activity was corrected for transfection efficiency using the β-galactosidase activity as an internal standard (see, for example, Kliewer, S. A., et. al. Cell 83, 813-819 (1995)).” left out

The next data set deals with T3, human PPAR delta (Homo sapiens, UniProt Q03181).
T3 construct: expressed in transfected cells; host or cells: CV-1 cells
T3 sequence (Q03181 211-439 limits assumed): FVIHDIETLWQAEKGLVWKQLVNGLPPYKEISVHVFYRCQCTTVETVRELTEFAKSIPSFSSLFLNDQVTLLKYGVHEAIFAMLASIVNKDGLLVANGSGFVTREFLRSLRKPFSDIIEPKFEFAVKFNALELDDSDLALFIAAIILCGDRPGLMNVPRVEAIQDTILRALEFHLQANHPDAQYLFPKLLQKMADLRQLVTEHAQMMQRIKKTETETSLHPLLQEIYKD
As to the kind of experiment: PPAR transient transfection (transactivation) assay in CV-1 cells, PPAR delta. It counts as cell-based. The following applies: PPAR LBD-GAL4 chimera, SPAP reporter, 24 h with compound, read-out: human δEC50.
Source text: as §1

Take `Cc1nc(-c2ccc(F)cc2)sc1C(=O)NCc1ccc(OC(C)(C)C(=O)O)cc1` [Example 31, 2-Methyl-2-[4-{[(4-methyl-2-[4-fluorophenyl]-thiazol-5-ylcarbonyl)amino]methyl}phenoxy]propionic Acid]: the melting point came out at 159 °C. For the same molecule, the pEC50 at human PPAR gamma is ≤ 5.00. Also, the pEC50 on human PPAR alpha is 7.36. Moreover, the pEC50 at human PPAR delta was ≤ 5.00.

`CC(C)(Oc1ccc(CNC(=O)c2sc(-c3ccc(C(F)(F)F)cc3)nc2C(F)(F)F)cc1)C(=O)O` [Example 41, 2-Methyl-2-[4-{[(4-trifluoromethyl-2-[4-trifluoromethylphenyl]-thiazol-5-ylcarbonyl)amino]methyl}phenoxy]propionic Acid]: the pEC50 at human PPAR gamma is 6.08; on human PPAR alpha, 8.30; at human PPAR delta, ≤ 5.00.

On to `Cc1nc(-c2ccc(C(F)(F)F)cc2)oc1C(=O)NCc1ccc(OC(C)(C)C(=O)O)cc1` [Example 45, 2-Methyl-2-[4-{[(4-methyl-2-[4-trifluoromethylphenyl]-oxazol-5-ylcarbonyl)amino]methyl}phenoxy]propionic Acid], for which the pEC50 was ≤ 5.00 on human PPAR gamma, 6.40 at human PPAR alpha and 5.79 on human PPAR delta.

With `COc1cc(CNC(=O)c2sc(-c3ccc(C(F)(F)F)cc3)nc2C)ccc1OC(C)(C)C(=O)O` [Example 49, 2-Methyl-2-[2-methoxy-4-{[(4-methyl-2-[4-trifluoromethylphenyl]-thiazol-5-ylcarbonyl)amino]methyl}phenoxy]propionic Acid], the results for the pEC50 on human PPAR gamma, at human PPAR alpha and on human PPAR delta were ≤ 5.00, 8.00 and 6.00, respectively.
